The NIST ThermoML archive (doi:10.1021/je3013342)

How the values were obtained:
[1] = 101 kPa, Liquid, Vibrating tube method
[2] = xn = mol fraction of the nth substance listed; conditions: 101 kPa, Liquid, Vibrating tube method

CC(Cl)(Cl)Cl [1,1,1-trichloroethane]
[1]
Conditions	mass density [kg/m3]
298.15 K	1328.24
308.15 K	1311.45
318.15 K	1294.47

CC(Cl)(Cl)Cl [1,1,1-trichloroethane] + C[N+](=O)[O-]
mass density [kg/m3], [2]
Conditions	x1 = 0.0921	x1 = 0.1727	x1 = 0.2614	x1 = 0.3951	x1 = 0.4862	x1 = 0.5904	x1 = 0.7066	x1 = 0.8358	x1 = 0.9012	x1 = 1
298.15 K	1161.87	1185.48	1208.35	1238.06	1255.6	1273.47	1291.18	1308.67	1316.72	1328.24
308.15 K	1147.77	1170.98	1193.5	1222.71	1239.96	1257.52	1274.93	1292.14	1300.08	1311.45
318.15 K	1133.54	1156.35	1178.49	1207.19	1224.13	1241.39	1258.49	1275.42	1283.24	1294.47

ClC(Cl)C(Cl)Cl [1,1,2,2-tetrachloroethane]
[1]
Conditions	mass density [kg/m3]
298.15 K	1588.23
308.15 K	1572.66
318.15 K	1557.04

ClC(Cl)C(Cl)Cl [1,1,2,2-tetrachloroethane] + C[N+](=O)[O-]
mass density [kg/m3], [2]
Conditions	x1 = 0.0711	x1 = 0.1888	x1 = 0.2563	x1 = 0.3464	x1 = 0.4341	x1 = 0.5431	x1 = 0.6654	x1 = 0.8211	x1 = 0.9285	x1 = 1
298.15 K	1191.08	1275.68	1318	1366.65	1408.57	1454.03	1497.84	1544.6	1571.92	1588.23
308.15 K	1177.12	1261.26	1303.41	1351.85	1393.61	1438.91	1482.56	1529.17	1556.4	1572.66
318.15 K	1163.03	1246.76	1288.69	1336.94	1378.54	1423.68	1467.2	1513.67	1540.82	1557.04

ClCCCl [1,2-dichloroethane]
[1]
Conditions	mass density [kg/m3]
298.15 K	1245.59
308.15 K	1230.96
318.15 K	1216.16

ClCCCl [1,2-dichloroethane] + C[N+](=O)[O-]
[2], x1 = 1
Conditions	mass density [kg/m3]
298.15 K	1245.59
308.15 K	1230.96
318.15 K	1216.16

ClCCCCl [1,3-dichloropropane]
[1]
Conditions	mass density [kg/m3]
298.15 K	1180.1
308.15 K	1167.7
318.15 K	1155.21

ClCCCCl [1,3-dichloropropane] + C[N+](=O)[O-]
mass density [kg/m3], [2]
Conditions	x1 = 0.0878	x1 = 0.1939	x1 = 0.2938	x1 = 0.3998	x1 = 0.5028	x1 = 0.6154	x1 = 0.7207	x1 = 0.8326	x1 = 0.9404	x1 = 1
298.15 K	1135.58	1141.34	1146.79	1152.41	1157.65	1163.15	1168.07	1173.04	1177.55	1180.1
308.15 K	1122.12	1128.05	1133.64	1139.39	1144.76	1150.38	1155.41	1160.49	1165.1	1167.7
318.15 K	1108.53	1114.63	1120.37	1126.26	1131.76	1137.51	1142.65	1147.84	1152.56	1155.21

ClCCCCCl [1,4-dichlorobutane]
[1]
Conditions	mass density [kg/m3]
298.15 K	1133.94
308.15 K	1123
318.15 K	1112

ClCCCCCl [1,4-dichlorobutane] + C[N+](=O)[O-]
mass density [kg/m3], [2]
Conditions	x1 = 0.0825	x1 = 0.1759	x1 = 0.2825	x1 = 0.3815	x1 = 0.4815	x1 = 0.5911	x1 = 0.6898	x1 = 0.8208	x1 = 0.9262	x1 = 1
298.15 K	1128.17	1126.77	1126.33	1126.62	1127.33	1128.46	1129.64	1131.38	1132.86	1133.94
308.15 K	1114.98	1113.92	1113.86	1114.44	1115.42	1116.8	1118.18	1120.16	1121.81	1123
318.15 K	1101.65	1100.97	1101.28	1102.17	1103.42	1105.05	1106.65	1108.88	1110.7	1112

CCCCCl [1-chlorobutane]
[1]
Conditions	mass density [kg/m3]
298.15 K	881.17
308.15 K	870
318.15 K	858.67

CCCCCl [1-chlorobutane] + C[N+](=O)[O-]
[2], x1 = 1
Conditions	mass density [kg/m3]
298.15 K	881.17
308.15 K	870
318.15 K	858.67

CCCCCCl [1-chloropentane]
[1]
Conditions	mass density [kg/m3]
298.15 K	877.09
308.15 K	866.97
318.15 K	856.73

CCCCCCl [1-chloropentane] + C[N+](=O)[O-]
mass density [kg/m3], [2]
Conditions	x1 = 0.1043	x1 = 0.1721	x1 = 0.2575	x1 = 0.3466	x1 = 0.4525	x1 = 0.5435	x1 = 0.6864	x1 = 0.8325	x1 = 0.8859	x1 = 1
298.15 K	1075.06	1045.39	1014.58	987.6	960.73	941.21	916.34	895.75	889.18	877.09
308.15 K	1062.09	1032.77	1002.33	975.7	949.19	929.96	905.49	885.27	878.82	866.97
318.15 K	1048.99	1020.02	989.95	963.67	937.53	918.59	894.51	874.65	868.33	856.73

C[N+](=O)[O-] [nitromethane]
[1]
Conditions	mass density
298.15 K	1130.9 kg/m3 [middle of 5 runs]
308.15 K	1117.28 kg/m3 [middle of 6 runs]
318.15 K	1103.53 kg/m3 [middle of 6 runs]

C[N+](=O)[O-] [nitromethane] + CC(Cl)(Cl)Cl
[2], x2 = 0
Conditions	mass density [kg/m3]
298.15 K	1130.91
308.15 K	1117.29
318.15 K	1103.55

C[N+](=O)[O-] [nitromethane] + CCCCCCl
[2], x2 = 0
Conditions	mass density [kg/m3]
298.15 K	1130.86
308.15 K	1117.23
318.15 K	1103.48

C[N+](=O)[O-] [nitromethane] + CCCCCl
mass density [kg/m3], [2]
Conditions	x2 = 0	x2 = 0.1107	x2 = 0.2174	x2 = 0.3236	x2 = 0.3932	x2 = 0.4856	x2 = 0.5569	x2 = 0.6626	x2 = 0.7722	x2 = 0.8646
298.15 K	1130.76	1080.18	1040.11	1007.02	987.92	965.38	949.92	929.96	911.75	898.07
308.15 K	1117.14	1067	1027.27	994.47	975.54	953.21	937.92	918.09	900.15	886.65
318.15 K	1103.39	1053.7	1014.29	982.09	963.01	940.87	925.76	906.2	888.4	875.07

C[N+](=O)[O-] [nitromethane] + ClC(Cl)C(Cl)Cl
[2], x2 = 0
Conditions	mass density [kg/m3]
298.15 K	1130.86
308.15 K	1117.24
318.15 K	1103.5

C[N+](=O)[O-] [nitromethane] + ClC(Cl)Cl
mass density [kg/m3], [2]
Conditions	x2 = 0	x2 = 0.1197	x2 = 0.1772	x2 = 0.3007	x2 = 0.4009	x2 = 0.5	x2 = 0.5978	x2 = 0.7194	x2 = 0.8607	x2 = 0.9562
298.15 K	1130.86	1189.05	1214.82	1265.96	1303.55	1337.74	1368.78	1404.19	1441.14	1463.58
308.15 K	1117.24	1174.6	1200	1250.36	1287.37	1321	1351.55	1386.34	1422.65	1444.71
318.15 K	1103.5	1160.01	1185.02	1234.59	1271	1304.11	1334.09	1368.25	1403.89	1425.56

C[N+](=O)[O-] [nitromethane] + ClCCCCCl
[2], x2 = 0
Conditions	mass density [kg/m3]
298.15 K	1130.95
308.15 K	1117.32
318.15 K	1103.57

C[N+](=O)[O-] [nitromethane] + ClCCCCl
[2], x2 = 0
Conditions	mass density [kg/m3]
298.15 K	1130.9
308.15 K	1117.28
318.15 K	1103.53

C[N+](=O)[O-] [nitromethane] + ClCCCl
mass density [kg/m3], [2]
Conditions	x2 = 0	x2 = 0.1132	x2 = 0.2235	x2 = 0.3249	x2 = 0.4672	x2 = 0.5586	x2 = 0.6264	x2 = 0.7349	x2 = 0.857	x2 = 0.923
298.15 K	1130.86	1147.31	1162.54	1175.69	1192.94	1203.25	1210.49	1221.8	1233.37	1239.2
308.15 K	1117.24	1133.59	1148.71	1161.77	1178.89	1189.11	1196.29	1207.48	1218.91	1224.67
318.15 K	1103.5	1119.73	1134.75	1147.71	1164.69	1174.81	1181.96	1192.99	1204.28	1209.97

ClC(Cl)Cl [trichloromethane]
[1]
Conditions	mass density [kg/m3]
298.15 K	1473.42
308.15 K	1454.33
318.15 K	1434.98

ClC(Cl)Cl [trichloromethane] + C[N+](=O)[O-]
[2], x1 = 1
Conditions	mass density [kg/m3]
298.15 K	1473.42
308.15 K	1454.33
318.15 K	1434.98
